# Results reported in patent publication US20250326785A1, “SODIUM SALT AND ETHANOLAMINE SALT OF 23-HYDROXYTORMENTIC ACID” (HUYABIO International, LLC, priority 2024, published 2025).
# Where two headings read alike, the source gives them in different places.
# Tests used:
# [1] = for HPLC Conc.: 24 h, starting concentration 100 mg/mL; for HPLC Conc. / HPLC Conc./: based on free acid
# Text: pH-dependent solubility of the HBI- 3808 sodium salt of Pattern 2 was studied.
# pH dependent solubility of the HBI- 3808 sodium salt of Pattern 5 was studied.
# [2] = Stability study at 25° C./60% RH, 40° C./75% RH and 60° C. (XRPD, HPLC purity, impurity tracking); conditions: for XRPD: * = crystalline salt; for HPLC: based on free acid
# Text: Stability of HBI-3808 Sodium Salt Pattern 2 was studied over 13 weeks.
# Table 2F presents impurity tracking results from a 13-week stability study of HBI-3808 sodium salt of Pattern 2. […]
# [3] = 25° C./60% RH (open vial), 13 Weeks
# [4] = 25° C./60% RH (open vial), 1 Week
# [5] = 25° C./60% RH (open vial), 2 Weeks
# [6] = 25° C./60% RH (open vial), 4 Weeks
# [7] = 25° C./60% RH (open vial), 8 Weeks
# [8] = 40° C./75% RH (open vial), 13 Weeks
# [9] = 40° C./75% RH (open vial), 1 Week
# [10] = 40° C./75% RH (open vial), 2 Weeks
# [11] = 40° C./75% RH (open vial), 4 Weeks
# [12] = 40° C./75% RH (open vial), 8 Weeks
smiles,measurement,setting,value
"C[C@@H]1CC[C@]2(C(=O)O)CC[C@]3(C)C(=CC[C@@H]4[C@@]5(C)C[C@@H](O)[C@H](O)[C@@](C)(CO)[C@@H]5CC[C@]43C)[C@@H]2[C@]1(C)O.NCCO [ethanolamine salt of HBI-3808, ETHANOLAMINE SALT OF 23-HYDROXYTORMENTIC ACID]",XRPD of recovered solids,[1]; FaSSGF,consistent with ethanolamine salt
same,final Measured pH,[1]; FaSSGF,8.62
same,HPLC Conc.,"[1]; FaSSGF, final pH 8.62",57.2 mg/mL
same,XRPD pattern of recovered solids,"[1]; FaSSGF, *** = crystalline salt",1***
same,HPLC Conc./,[1]; FaSSGF,57.2 mg/mL
same,concentration,[1]; pH 1.2,< 1 µg/mL
same,XRPD of recovered solids,[1]; target pH 1.2,Amorphous solids
same,HPLC Conc.,[1]; target pH 1.2 buffer,<0.001 mg/mL
same,XRPD of recovered solids,[1]; target pH 3.0,consistent with HBI-3808 free acid of Pattern 1
same,HPLC Conc.,[1]; target pH 3.0 buffer,<0.001 mg/mL
same,XRPD pattern of recovered solids,"[1]; target pH 3.0 buffer, ** = free acid",1**
same,XRPD of recovered solids,[1]; target pH 4.0,consistent with HBI-3808 free acid of Pattern 1
same,HPLC Conc.,[1]; target pH 4.0 buffer,<0.001 mg/mL
same,XRPD pattern of recovered solids,"[1]; target pH 4.0 buffer, ** = free acid",1**
same,XRPD of recovered solids,[1]; target pH 6.8,Amorphous solids
same,HPLC Conc.,[1]; target pH 6.8 buffer,0.5 mg/mL
same,HPLC Conc./,[1]; target pH 6.8 phosphate buffer,0.5 mg/mL
same,XRPD of recovered solids,[1]; target pH 8.0,Amorphous solids
same,HPLC Conc.,[1]; target pH 8.0 buffer,17.7 mg/mL
same,HPLC Conc./,[1]; target pH 8.0 phosphate buffer,17.7 mg/mL
same,HPLC/ % area,[2]; [3],97.4 % area
same,XRPD,[2]; [4],1*
same,HPLC,[2]; [4],97.3 % area
same,XRPD,[2]; [5],1*
same,HPLC,[2]; [5],97.3 % area
same,XRPD,[2]; [6],1*
same,HPLC,[2]; [6],97.5 % area
same,XRPD,[2]; [7],1*
same,HPLC,[2]; [7],97.0 % area
same,XRPD,[2]; [3],1*
same,HPLC,[2]; [3],97.3 % area
same,RRT 0.801 impurity,"[2]; 25° C./60% RH, 1 week",0.10 % area
same,RRT 0.970 impurity,"[2]; 25° C./60% RH, 1 week",0.10 % area
same,RRT 1.000 (HBI-3808),"[2]; 25° C./60% RH, 1 week",97.31 % area
same,RRT 1.025 (Isomer of HBI-3808),"[2]; 25° C./60% RH, 1 week",2.48 % area
same,Total Impurities,"[2]; 25° C./60% RH, 1 week",2.69 % area
same,RRT 0.970 impurity,"[2]; 25° C./60% RH, 2 weeks",0.12 % area
same,RRT 1.000 (HBI-3808),"[2]; 25° C./60% RH, 2 weeks",97.29 % area
same,RRT 1.025 (Isomer of HBI-3808),"[2]; 25° C./60% RH, 2 weeks",2.39 % area
same,RRT 1.935 impurity,"[2]; 25° C./60% RH, 2 weeks",0.20 % area
same,Total Impurities,"[2]; 25° C./60% RH, 2 weeks",2.71 % area
same,RRT 0.970 impurity,"[2]; 25° C./60% RH, 4 weeks",0.11 % area
same,RRT 1.000 (HBI-3808),"[2]; 25° C./60% RH, 4 weeks",97.47 % area
same,RRT 1.025 (Isomer of HBI-3808),"[2]; 25° C./60% RH, 4 weeks",2.41 % area
same,Total Impurities,"[2]; 25° C./60% RH, 4 weeks",2.53 % area
same,RRT 0.970 impurity,"[2]; 25° C./60% RH, 8 weeks",0.10 % area
same,RRT 1.000 (HBI-3808),"[2]; 25° C./60% RH, 8 weeks",96.99 % area
same,RRT 1.025 (Isomer of HBI-3808),"[2]; 25° C./60% RH, 8 weeks",2.51 % area
same,RRT 1.767 impurity,"[2]; 25° C./60% RH, 8 weeks",0.29 % area
same,Total Impurities,"[2]; 25° C./60% RH, 8 weeks",3.01 % area
same,RRT 0.801 impurity,"[2]; 25° C./60% RH, 13 weeks",0.12 % area
same,RRT 1.000 (HBI-3808),"[2]; 25° C./60% RH, 13 weeks",97.33 % area
same,RRT 1.025 (Isomer of HBI-3808),"[2]; 25° C./60% RH, 13 weeks",2.37 % area
same,RRT 1.935 impurity,"[2]; 25° C./60% RH, 13 weeks",0.19 % area
same,Total Impurities,"[2]; 25° C./60% RH, 13 weeks",2.67 % area
same,RRT 1.000 (HBI-3808),"[2]; 25° C./60% RH, T = 0",97.82 % area
same,RRT 1.025 (Isomer of HBI-3808),"[2]; 25° C./60% RH, T = 0",2.18 % area
same,Total Impurities,"[2]; 25° C./60% RH, T = 0",2.18 % area
same,HPLC/ % area,[2]; [8],97.4 % area
same,XRPD,[2]; [9],1*
same,HPLC,[2]; [9],97.3 % area
same,XRPD,[2]; [10],1*
same,HPLC,[2]; [10],97.3 % area
same,XRPD,[2]; [11],1*
same,HPLC,[2]; [11],97.5 % area
same,XRPD,[2]; [12],1*
same,HPLC,[2]; [12],96.9 % area
same,XRPD,[2]; [8],1*
same,HPLC,[2]; [8],97.4 % area
